These results are taken from publication PMC9096165 (Frontiers in Pharmacology, 2022).

One data set deals with CXCL1/KC. The data set is described as follows: CXCL1 ELISA in bladder tissue. It is filed as in vivo, rat. To be noted: preventive: 20 mg kg^−1 + 7 mg kg^−1 twice daily for 7 days, CYP rats. Here is the method:
(§1) Animals pre-treated with the vehicle or a single high oral dose of DF2755A (20 mg kg^−1; 12 h before the first CYP administration) followed by repeated lower doses administration (7 mg kg^−1 twice daily for 7 days) during IC development were deeply anesthetized with isoflurane (4%) and then killed.
After killing, rat abdomen was opened through a midline incision, and bladder and proximal urethra were exposed. A catheter was inserted into the bladder through the urethra and a loose ligature was placed around the neck of the urinary bladder. Bladder was inflated with saline via the catheter to slightly distend the bladder and ligature was tightened to maintain proper distension. Bladder was then excised cutting above the insertion point of ureters, and therefore the bladder neck was not included into the bladder sample. […] One piece (B1) was placed in Eppendorf, then snap-frozen in liquid nitrogen, and stored at −80°C until quantification using ELISA assay. […] For the microscopic observations of bladder inflammation, the following parameters were analyzed: bladder edema in scores (n = 10/group), bladder hemorrhage in scores (n = 10/group), urothelial loss in scores (n = 10/group), and total inflammatory score, which was calculated by adding all the individual lesion scores (n = 10/group). […]
(In general: ELISA stands for enzyme-linked immunosorbent assay.)

Another data set deals with CXCR2. The data set is described as follows: CXCR2 mRNA expression in F11 cells (RT PCR). To be noted: DF2755A 1 µM + CYP 100 nM. It is filed as cell-based. An excerpt:
(§2) For these experiments, cells at 18th passage were used.
(§3) Triplicate samples were run for each gene.

Data set [1] has as its system CXCR1. The data set is described as follows: CXCR1 mRNA expression in F11 cells (RT PCR). It is filed as cell-based. To be noted: DF2755A 1 µM + CYP 100 nM.
Text: as §2, §3

The subject of the next data set is F11 cells. The data set can be described thus: F11 cell viability (CellTiter AQueous One). It is filed as cell-based. The settings on record: differentiated F11 cells, 24 h, 0.1 to 5 µM. How it is done: as §2
[…] Cell viability was determined using the colorimetric method CellTiter AQueous One Solution Cell Proliferation Assay (Promega Corporation, United States), as previously reported ([Brandolini et al., 2017]). The quantity of formed formazan, as a function of viability, was measured at 492 nm using an ELISA plate reader, Infinite F200 (Tecan, Männedorf, Swiss). The results from five independent experiments were expressed as absorbance at 492 nm.

Data set [2] concerns TRPV1. The data set is described as follows: TRPV1 Western blotting in bladder homogenates. To be noted: preventive: 20 mg kg^−1 + 7 mg kg^−1 twice daily for 7 days; Western blot, CYP rats. It is filed as in vivo, rat. How it is done:
as §1
After killing, rat abdomen was opened through a midline incision, and bladder and proximal urethra were exposed. A catheter was inserted into the bladder through the urethra and a loose ligature was placed around the neck of the urinary bladder. Bladder was inflated with saline via the catheter to slightly distend the bladder and ligature was tightened to maintain proper distension. […] One piece (B1) was placed in Eppendorf, then snap-frozen in liquid nitrogen, and stored at −80°C until quantification using ELISA assay. […] For the microscopic observations of bladder inflammation, the following parameters were analyzed: bladder edema in scores (n = 10/group), bladder hemorrhage in scores (n = 10/group), urothelial loss in scores (n = 10/group), and total inflammatory score, which was calculated by adding all the individual lesion scores (n = 10/group).
Protease and phosphatase inhibitors were added to the bladder homogenates extracted. […] The extracted proteins were quantified using BCA assay (Thermo, United States). […]
For orientation: A western blot detects proteins with antibodies after separation by electrophoresis.

Data set [3] relates to TRPV1. The data set is described as follows: TRPV1 mRNA expression in F11 cells (RT PCR). It is filed as cell-based. The settings on record: DF2755A 1 µM + CYP 100 nM.
Text: as §2, §3

Data set [4] deals with CXCR1. Further details: method as in Lopes et al., 2016. To be noted: ref Lopes et al., 2016; cited from earlier work.

Each structure is given as a SMILES string. pIC50: −log10 of the molar value.

The pIC50 is the negative decadic logarithm of the IC50, by convention in mol/L. Take `C[C@H](C(=O)[O-])c1ccc(Nc2nc(C(F)(F)F)cs2)cc1.[Na+]` [DF2755A, sodium (2S)-2-(4-{[4-(trifluoromethyl)-1,3-thiazol-2-yl]amino}phenyl)propanoate]: the “bladder tissue expression of CXCL1/KC versus vehicle-treated rats” value in the data set with CXCL1/KC is recorded as “strongly inhibited”. The “CXCR2 mRNA expression in CYP-exposed cells” value with CXCR2 is reported as “restored the mRNA expression of all the targets to control values”. In addition, the “CXCR1 mRNA expression in CYP-exposed cells” value in the data set on CXCR1 [1] is “restored the mRNA expression of all the targets to control values”. Moreover, the neuronal cell viability entry with F11 cells is reported as “did not modulate neuronal cell viability”. Moreover, the “TRPV1 bladder expression versus vehicle-treated animals” value in the data set on TRPV1 [2] is on record as “reduced”. Besides, the “TRPV1 mRNA expression in CYP-exposed cells” value in the data set with TRPV1 [3] was “restored TRPV1 mRNA expression to control values”. In addition, the pIC50 with CXCR1 [4] was 8.38.
